Test results: patent publication US11046699B2, “Pyrazolo-pyrimidin-amino-cycloalkyl compounds and their therapeutic uses” (RAPT THERAPEUTICS, INC., priority 2018, dated 2021)
Like-named read-outs stand apart in the source and are kept apart here.

Target: GCN2 (Homo sapiens, UniProt Q9P2K8)
Experiment: GCN2 enzymatic endpoint assay: phosphorylation of GFP-eIF2α measured by TR-FRET (Lanthascreen)
Assay type: biochemical
Description: The Enzymatic assay was run as an endpoint assay to quantify the activity of the serine/threonine GCN2 kinase by way of measuring phosphorylation of its natural substrate, eiF2α.
The enzymatic reaction was initiated by incubating with 2 μM ATP and 80 nM of GFP labeled eiF2a substrate at room temperature and then stopped after 90 minutes with EDTA. The amount of phosphorylated eIF2α is determined by TR-FRET (Lanthascreen). A terbium labeled antibody associates with the phosphorylated substrate resulting in an increased TR-FRET value. Activity was calculated as the ratio of the acceptor (fluorescein) signal at 520 nm wavelength to the donor (terbium) signal 495 nm. The amount of antibody that is bound to the tracer is directly proportional to the amount of phosphorylated substrate present, and in this manner, kinase activity can be detected and measured by an increase in the TR-FRET value.
Compound addition by D300
5 μL enzyme solution in assay buffer
5 μL substrate/ATP mixture in assay buffer
5 μL stop/detection mix in antibody dilution buffer

[1] = tested as described in Example 77, compound and/or hydrochloride, dihydrochloride or trifluoroacetic acid salt, read-out: IC 50 Activity

Chain of GCN2 (Q9P2K8 whole entry): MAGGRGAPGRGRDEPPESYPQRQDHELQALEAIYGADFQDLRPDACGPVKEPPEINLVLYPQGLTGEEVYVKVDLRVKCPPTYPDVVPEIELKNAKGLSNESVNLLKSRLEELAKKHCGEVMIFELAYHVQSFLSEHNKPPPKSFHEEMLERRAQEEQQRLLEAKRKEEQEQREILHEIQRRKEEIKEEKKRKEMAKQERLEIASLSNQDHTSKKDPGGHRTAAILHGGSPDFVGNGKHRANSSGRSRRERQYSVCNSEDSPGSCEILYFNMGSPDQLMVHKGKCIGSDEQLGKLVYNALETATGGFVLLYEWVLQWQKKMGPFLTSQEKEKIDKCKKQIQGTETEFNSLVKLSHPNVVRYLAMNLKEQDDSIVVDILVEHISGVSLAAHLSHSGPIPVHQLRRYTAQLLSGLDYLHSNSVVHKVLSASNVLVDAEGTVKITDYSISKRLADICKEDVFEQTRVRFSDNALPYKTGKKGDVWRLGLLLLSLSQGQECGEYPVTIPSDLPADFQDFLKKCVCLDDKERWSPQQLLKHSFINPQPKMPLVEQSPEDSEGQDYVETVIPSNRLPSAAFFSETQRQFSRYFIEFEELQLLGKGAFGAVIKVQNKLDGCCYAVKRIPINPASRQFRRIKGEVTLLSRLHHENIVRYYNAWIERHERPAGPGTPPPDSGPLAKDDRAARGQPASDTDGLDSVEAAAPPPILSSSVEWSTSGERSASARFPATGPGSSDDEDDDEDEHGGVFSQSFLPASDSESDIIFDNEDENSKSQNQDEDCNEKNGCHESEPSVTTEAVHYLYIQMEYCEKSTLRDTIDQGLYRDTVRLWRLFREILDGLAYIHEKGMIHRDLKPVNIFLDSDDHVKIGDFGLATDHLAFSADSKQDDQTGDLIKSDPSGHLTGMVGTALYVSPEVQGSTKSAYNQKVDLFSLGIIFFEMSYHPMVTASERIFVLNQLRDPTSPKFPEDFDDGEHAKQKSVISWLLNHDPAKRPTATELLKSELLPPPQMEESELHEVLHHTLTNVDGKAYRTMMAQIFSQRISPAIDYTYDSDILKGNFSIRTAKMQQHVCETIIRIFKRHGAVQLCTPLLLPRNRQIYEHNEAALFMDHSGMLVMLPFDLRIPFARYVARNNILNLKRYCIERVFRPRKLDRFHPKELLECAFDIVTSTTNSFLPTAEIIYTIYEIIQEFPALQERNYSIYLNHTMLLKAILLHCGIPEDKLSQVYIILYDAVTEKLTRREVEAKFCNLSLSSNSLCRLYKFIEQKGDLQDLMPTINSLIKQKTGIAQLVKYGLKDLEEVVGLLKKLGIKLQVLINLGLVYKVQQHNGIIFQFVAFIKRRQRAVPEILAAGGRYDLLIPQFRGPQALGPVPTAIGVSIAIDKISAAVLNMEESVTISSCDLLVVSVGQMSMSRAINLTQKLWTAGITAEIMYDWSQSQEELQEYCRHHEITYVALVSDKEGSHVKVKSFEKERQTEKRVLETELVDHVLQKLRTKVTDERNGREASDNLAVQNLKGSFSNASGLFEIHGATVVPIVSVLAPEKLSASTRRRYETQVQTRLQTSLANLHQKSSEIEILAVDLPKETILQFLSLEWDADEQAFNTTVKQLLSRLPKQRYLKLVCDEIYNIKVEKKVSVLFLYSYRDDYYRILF

IC50 [1] [nM] | IC50 (GCN2 biochemical IC50, 4 nM GCN2, 2 μM ATP, 80 nM GFP-eIF2α, 90 min RT, read-out: GCN2 activity) [nM] | Compound
25 to 200 | – | CNC(=O)[C@]1(C)CC[C@@H](Nc2ncc3c(Br)nn(-c4cc(C(C)(C)O)c5ncccc5c4)c3n2)C1 [(1R,3R)-3-[[3-bromo-1-[8-(1-hydroxy-1-methyl-ethyl)-6-quinolyl]pyrazolo[3,4-d]pyrimidin-6-yl]amino]-N,1-dimethyl-cyclopentanecarboxamide]
25 to 200 | – | C[C@H]1CN(C(=O)[C@@H]2CC[C@@H](Nc3ncc4c(Br)nn(-c5ccc6ncccc6c5)c4n3)C2)C[C@H](C)N1 [((1R,3R)-3-((3-bromo-1-(quinolin-6-yl)-1H-pyrazolo[3,4-d]pyrimidin-6-yl)amino)cyclo-pentyl)((3S,5S)-3,5-dimethylpiperazin-1-yl)methanone]
< 25 | – | C[C@@]1(C(=O)N2CNC(=O)C2)CC[C@@H](Nc2ncc3c(Br)nn(-c4cc(F)c5ncccc5c4)c3n2)C1 [1-[(1R,3R)-3-[[3-bromo-1-(8-fluoro-6-quinolyl)pyrazolo[3,4-d]pyrimidin-6-yl]amino]-1-methyl-cyclopentanecarbonyl] imidazolidin-4-one]
25 to 200 | – | CNC(=O)[C@@]1(CC(F)F)CC[C@@H](Nc2ncc3c(Br)nn(-c4ccc(-c5nnc(C)o5)cc4)c3n2)C1 [(1S,3R)-3-[[3-bromo-1-[4-(5-methyl-1,3,4-oxadiazol-2-yl)phenyl]pyrazolo[3,4-d]pyrimidin-6-yl]amino]-1-(2,2-difluoroethyl)-N-methyl-cyclopentanecarboxamide]
25 to 200 | – | CNC(=O)[C@]1(C)CC[C@@H](Nc2ncc3c(Br)nn(-c4ccc(-c5ncc(C)[nH]5)cc4)c3n2)C1 [(1R,3R)-3-[[3-bromo-1-[4-(5-methyl-1H-imidazol-2-yl)phenyl]pyrazolo[3,4-d]pyrimidin-6-yl]amino]-N,1-dimethyl-cyclopentanecarboxamide]
25 to 200 | – | O=C(NCC(F)(F)CO)[C@@H]1CC[C@@H](Nc2ncc3c(Br)nn(-c4cc(F)c5ncccc5c4)c3n2)C1
200 to 500 | – | COCCNC(=O)[C@@H]1CC[C@@H](Nc2ncc3c(Br)nn(-c4ccc5nc(C)cc(Cl)c5c4)c3n2)C1 [(1R,3R)-3-((3-bromo-1-(4-chloro-2-methyl-quinolin-6-yl)-1H-pyrazolo[3,4-d]pyrimidin-6-yl)amino)-N-(2-methoxyethyl)cyclopentane-1-carboxamide]
25 to 200 | – | CNC(=O)C1(C)CC[C@@H](Nc2ncc3c(Br)nn(-c4cc(F)cc(CO)c4)c3n2)C1 (stereo partly drawn) [(3R)-3-[[3-bromo-1-[3-fluoro-5-(hydroxymethyl)phenyl]pyrazolo[3,4-d]pyrimidin-6-yl]amino]-N,1-dimethyl-cyclopentanecarboxamide]
< 25 | – | CNC(=O)[C@]1(C)CC[C@@H](Nc2ncc3c(Br)nn(-c4cc(C#N)c5nc(C)ccc5c4)c3n2)C1 [(1R,3R)-3-[[3-bromo-1-(8-cyano-2-methyl-6-quinolyl)pyrazolo[3,4-d]pyrimidin-6-yl]amino]-N,1-dimethyl-cyclopentane-carboxamide]
< 25 | – | CNC(=O)[C@]1(C)CC[C@@H](Nc2ncc3c(Br)nn(-c4cc([C@@H](C)CO)c5ncccc5c4)c3n2)C1 [(1R,3R)-3-[[3-bromo-1-[8-[(1R)-2-hydroxy-1-methyl-ethyl]-6-quinolyl]pyrazolo[3,4-d]pyrimidin-6-yl]amino]-N,1-dimethyl-cyclo-pentanecarboxamide]
25 to 200 | – | CNC(=O)[C@]1(C)CC[C@@H](Nc2ncc3c(Br)nn(-c4cc(Cl)cc(C(=O)N(C)C5CNC5)c4)c3n2)C1 [N-(azetidin-3-yl)-3-[3-bromo-6-[[(1R,3R)-3-methyl-3-(methylcarbamoyl)cyclopentyl]amino]pyrazolo[3,4-d]pyrimidin-1-yl]-5-chloro-N-methyl-benzamide]
500 to 1000 | – | COc1cc(-n2nc(Br)c3cnc(N[C@@H]4CC[C@@H](C(=O)NCCS(C)(=O)=O)C4)nc32)ccn1
25 to 200 | – | CNC(=O)[C@@H]1CC[C@@H](Nc2ncc3c(Br)nn(-c4cc(F)c5nc(C)c(F)cc5c4)c3n2)C1 [(1R,3R)-3-((3-bromo-1-(3,8-difluoro-2-methyl-quinolin-6-yl)-1H-pyrazolo[3,4-d]pyrimidin-6-yl)amino)-N-methylcyclopentane-1-carboxamide]
25 to 200 | – | CNC(=O)[C@]1(C)CC[C@@H](Nc2ncc3c(Br)nn(-c4cnc5c(c4)OCC(=O)N5C)c3n2)C1 [(1R,3R)-3-[[3-bromo-1-(4-methyl-3-oxo-pyrido[3,2-b][1,4]oxazin-7-yl)pyrazolo [3,4-d]pyrimidin-6-yl]amino]-N,1-dimethyl-cyclopentanecarboxamide]
25 to 200 | – | CC1(C(=O)O)CN(C(=O)[C@@H]2CC[C@@H](Nc3ncc4c(Br)nn(-c5cc(F)c6ncccc6c5)c4n3)C2)C1 [1-((1R,3R)-3-((3-bromo-1-(8-fluoroquinolin-6-yl)-1H-pyrazolo[3,4-d]pyrimidin-6-yl)amino)cyclopentane-1-carbonyl)-3-methylazetidine-3-carboxylic acid]
25 to 200 | – | COCCNC(=O)[C@@H]1CC[C@@H](Nc2ncc3c(Br)nn(-c4cc(Cl)c5ncccc5c4)c3n2)C1 [(1R,3R)-3-((3-bromo-1-(8-chloroquinolin-6-yl)-1H-pyrazolo[3,4-d]pyrimidin-6-yl)amino)-N-(2-methoxyethyl)cyclopentane-1-carboxamide]

Continued, compound first:

Compound | IC50 [1] [nM] | IC50 (GCN2 biochemical IC50, 4 nM GCN2, 2 μM ATP, 80 nM GFP-eIF2α, 90 min RT, read-out: GCN2 activity) [nM]
CNC(=O)[C@]1(C)CC[C@@H](Nc2ncc3c(Br)nn(-c4ccc(-c5nnc(C)s5)c(OCC5CNC5)c4)c3n2)C1 [(1R,3R)-3-[[1-[3-(azetidin-3-ylmethoxy)-4-(5-methyl-1,3,4-thiadiazol-2-yl)phenyl]-3-bromo-pyrazolo[3,4-d]pyrimidin-6-yl]amino]-N,1-dimethyl-cyclopentane-carboxamide] | 25 to 200 | –
CN1CN(C(=O)[C@@H]2CC[C@@H](Nc3ncc4c(Br)nn(-c5cc(C#N)c6ncccc6c5)c4n3)C2)CC1=O [6-(3-bromo-6-(((1R,3R)-3-(3-methyl-4-oxo-imidazolidine-1-carbonyl)cyclopentyl)amino)-1H-pyrazolo[3,4-d]pyrimidin-1-yl) quinoline-8-carbonitrile] | 25 to 200 | –
CNC(=O)[C@]1(C)CC[C@@H](Nc2ncc3c(Br)nn(-c4ccc5c(c4)CN(C(=O)C4CN(C(=O)C(F)(F)F)C4)CC5)c3n2)C1 [(1R,3R)-3-[[3-bromo-1-[2-[1-(2,2,2-trifluoroacetyl)azetidine-3-carbonyl]-3,4-dihydro-1H-isoquinolin-7-yl]pyrazolo[3,4-d]pyrimidin-6-yl]amino]-N,1-dimethyl-cyclopentanecarboxamide] | 25 to 200 | –
CC(C)(NC(=O)[C@@H]1CC[C@@H](Nc2ncc3c(Br)nn(-c4cc(C#N)c5ncccc5c4)c3n2)C1)C(N)=O | < 25 | –
CNCc1cc(OC(F)(F)F)cc(-n2nc(Br)c3cnc(N[C@@H]4CCC(C)(C(=O)NC)C4)nc32)c1 (stereo partly drawn) [(3R)-3-[[3-bromo-1-[3-(methylaminomethyl)-5-(trifluoromethoxy)phenyl]pyrazolo[3,4-d]pyrimidin-6-yl]amino]-N,1-dimethyl-cyclopentanecarboxamide] | 25 to 200 | –
CNC(=O)C1(C(C)C#N)CC[C@@H](Nc2ncc3c(Br)nn(-c4ccc(-c5nnc(C)s5)c(CCC#N)c4)c3n2)C1 (stereo partly drawn) | 25 to 200 | –
CNC(=O)[C@]1(CCOC)CC[C@@H](Nc2ncc3c(Br)nn(-c4ccc(-c5nnc(C)s5)c(CCC#N)c4)c3n2)C1 [(1R,3R)-3-[[3-bromo-1-[3-(2-cyano-ethyl)-4-(5-methyl-1,3,4-thiadiazol-2-yl)phenyl]pyrazolo[3,4-d]pyrimidin-6-yl]amino]-1-(2-methoxyethyl)-N-methyl-cyclopentanecarboxamide; 2,2,2-trifluoroacetic acid] | 25 to 200 | –
O=C(O)C12CCC(Nc3ncc4c(Br)nn(-c5ccc6ncccc6c5)c4n3)(C1)C2 [4-((3-bromo-1-(quinolin-6-yl)-1H-pyrazolo [3,4-d]pyrimidin-6-yl)amino)bicyclo[2.1.1] hexane-1-carboxylic acid] | 500 to 1000 | –
O=C(N[C@H]1CC[C@@](O)(C(F)(F)F)CC1)[C@@H]1CC[C@@H](Nc2ncc3c(Br)nn(-c4ccc5ncccc5c4)c3n2)C1 | 25 to 200 | –
CN1CN(C(=O)[C@@]2(C)CC[C@@H](Nc3ncc4c(Br)nn(-c5cc(F)c6ncccc6c5)c4n3)C2)CC1=O [1-[(1S,3R)-3-[[3-bromo-1-(8-fluoro-6-quinolyl)pyrazolo[3,4-d]pyrimidin-6-yl]amino]-1-methyl-cyclopentanecarbonyl]-3-methyl-imidazolidin-4-one] | 25 to 200 | –
O=C1CN(C(=O)[C@@H]2CC[C@@H](Nc3ncc4c(Br)nn(-c5cc(C(F)F)c6ncccc6c5)c4n3)C2)CCN1 [4-((1R,3R)-3-((3-bromo-1-(8-(difluoromethyl)quinolin-6-yl)-1H-pyrazolo[3,4-d]pyrimidin-6-yl)amino)cyclopentane-1-carbonyl)piperazin-2-one] | 25 to 200 | –
CNC(=O)CC1CC(Nc2ncc3c(Br)nn(-c4ccc(-c5nnc(C)s5)c(CCC#N)c4)c3n2)C1 (stereo not drawn) | 25 to 200 | –
CNC(=O)[C@]1(C)CC[C@@H](Nc2ncc3c(Br)nn(-c4ccc(-c5nnc(C(C)(C)N)o5)cc4)c3n2)C1 [Example 47, (1R,3R)-3-((1-(4-(5-(2-aminopropan-2-yl)-1,3,4-oxadiazol-2-yl)phenyl)-3-bromo-1H-pyrazolo[3,4-d]pyrimidin-6-yl)amino)-N,1-dimethylcyclopentane-1-carboxamide; 2,2,2-trifluoroacetic acid] | – | 25 to 200
Cc1nnc(-c2ccc(-n3nc(Br)c4cnc(N[C@@H]5CC[C@@H](P(C)(C)=O)C5)nc43)cc2CCS(C)(=O)=O)s1 [3-bromo-N-[(1R,3R)-3-dimethylphosphoryl-cyclopentyl]-1-[3-(2-methylsulfonylethyl)-4-(5-methyl-1,3,4-thiadiazol-2-yl)phenyl] pyrazolo[3,4-d]pyrimidin-6-amine] | 25 to 200 | –
